Data: the NIST ThermoML archive (doi:10.1021/je900511c)

Settings: Liquid, Closed cell (Static) method

CCO[Si](C)(Cl)Cl [dichloroethoxymethylsilane]
Settings	vapor or sublimation pressure [kPa]
312.94 K	11.32
318.43 K	14.32
323.01 K	17.32
326.93 K	20.32
330.24 K	23.32
333.29 K	26.32
336.2 K	29.32
338.84 K	32.33
341.28 K	35.33
343.57 K	38.33
345.66 K	41.33
347.54 K	44.33
349.48 K	47.33
351.36 K	50.33
353.04 K	53.33
354.72 K	56.33
356.25 K	59.33
357.82 K	62.33
359.25 K	65.33
360.57 K	68.33
361.95 K	71.33
363.22 K	74.33
364.59 K	77.33
365.87 K	80.33
366.98 K	83.33
368.21 K	86.33
369.38 K	89.33
370.5 K	92.33
371.51 K	95.33
372.58 K	98.33
373.6 K	101.27
